Measured values as given in patent US11707454B2, “Topical roflumilast formulation having antifungal properties” (ARCUTIS BIOTHERAPEUTICS, INC., priority 2020, dated 2023).
Where two headings read alike, the source gives them in different places.

Key:
M. furfur (ATCC 14521) = assay: in vitro micro-dilution susceptibility assay (method of Rojas); format: cell-based; details: for MIC: Malassezia furfur, read-out: minimum inhibition concentration (MIC)
Description: (§1) The in vitro susceptibility of Malassezia species to roflumilast was determined utilizing three Candida species as internal control isolates for all testing. These three isolates were C. albicans American Type Culture Collection (ATCC) 90028, C. krusei (ATCC 6258) and C. parapsilosis (ATCC 22019). In addition to testing roflumilast all susceptibility assays were conducted using ketoconazole and hydrocortisone as positive and negative control compounds, respectively. All assays were placed within a humidified incubator set to 32° C. for a total of seven days. Each assay was evaluated after 12 hours of incubation and, every 24 hours post incubation for a total of seven days. The assays were evaluated for visual growth of each pathogen in the no treatment control as well as determination of minimum inhibition concentration (MIC) values. The concentration that provides a 3-log10 CFU/mL reduction in fungal burden from baseline at day 0 was defined as the minimum fungicidal concentration (MHC) and was determined by quantifying fungal burdens found in the microplate at day seven.
(§2) The method of Rojas (Rojas F D, et al. Antifungal susceptibility of Malassezia furfur, Malassezia sympodialis, and Malassezia globose to azole drugs and amphotericin B evaluated using a broth microdilution method. 2014. Medical Mycology. 52:641-646) was used in which the liquid broth medium was RPMI 1640 with added 1.8% glucose, 1% peptone, 0.5% ox-bile, 0.5% malt extract, 1% glycerol, 0.5% Tween 40 and 0.05% Tween 80. Round bottom 96 well microplates were used. The inoculums were prepared in sterile saline and diluted to a final targeted concentration of 0.5×10^5 to 2.5×10^5 CFU/mL in supplemented RPMI. […] For the internal control isolate C. parapsilosis (ATCC 22019) the expected CLSI values for ketoconazole of 0.03-0.25 (at 24 hours) and 0.06-0.5 (at 48 hours) did agree with the 2-day value (Table A) of 0.5.

C. krusei (ATCC 6258) [1] = assay: as above; format: cell-based; details: for MIC: Pichia kudriavzevii, read-out: minimum inhibition concentration (MIC)
Description: as §1, §2

[2] = tested on: M. globose (ATCC MYA-4889); assay: as above; format: cell-based
Description: as §1, §2

M. furfur (ATCC 12078) = assay: as above; format: cell-based; details: for MIC: Malassezia furfur, read-out: minimum inhibition concentration (MIC)
Description: as §1, §2

[3] = tested on: M. restricta (ATCC MYA-4611); assay: as above; format: cell-based
Description: as §1, §2

C. albicans (ATCC 90028) = assay: as above; format: cell-based; details: for MIC: Candida albicans, read-out: minimum inhibition concentration (MIC)
Description: as §1, §2

M. furfur (ATCC 44344) = assay: as above; format: cell-based; details: for MIC: Malassezia furfur, read-out: minimum inhibition concentration (MIC)
Description: as §1, §2

[4] = tested on: C. parapsilosis (ATCC 22019); assay: as above; format: cell-based; details: C. parapsilosis (22019); for MIC: Lodderomyces parapsilosis, read-out: minimum inhibition concentration (MIC)
Description: as §1, §2

[5] = tested on: C. parapsilosis (ATCC 22019); details: cited from earlier work
C. krusei (ATCC 6258) [6] = details: cited from earlier work

CC(=O)N1CCN(c2ccc(OCC3COC(Cn4ccnc4)(c4ccc(Cl)cc4Cl)O3)cc2)CC1 (centres unmarked) [Ketoconazole]
0.25 µg/mL: MIC (M. furfur (ATCC 14521); ATCC14521, 168 h, Time 7 days) | MIC (M. furfur (ATCC 12078); ATCC12078, 168 h, Time 7 days) | MIC (C. albicans (ATCC 90028); ATCC90028, 96 h, Time 4 days) | MIC (C. albicans (ATCC 90028); ATCC90028, 120 h, Time 5 days) | MIC (C. albicans (ATCC 90028); ATCC90028, 144 h, Time 6 days) | MIC (C. albicans (ATCC 90028); ATCC90028, 168 h, Time 7 days) | MIC (M. furfur (ATCC 44344); ATCC44344, 120 h, Time 5 days) | MIC (M. furfur (ATCC 44344); ATCC44344, 144 h, Time 6 days)
0.03-0.25: expected CLSI values ([5]; at 24 hours)
0.25-1: CLSI expected values (C. krusei (ATCC 6258) [6]; at 48 hours)
NGO: minimum inhibition concentration (MIC) (M. furfur (ATCC 14521); Time 0.5 days) | minimum inhibition concentration (MIC) (M. furfur (ATCC 14521); Time 1 days) | minimum inhibition concentration (MIC) (C. krusei (ATCC 6258) [1]; Time 0.5 days) | minimum inhibition concentration (MIC) ([2]; Time 0.5 days) | minimum inhibition concentration (MIC) ([2]; Time 1 days) | minimum inhibition concentration (MIC) ([2]; Time 2 days) | minimum inhibition concentration (MIC) ([2]; Time 3 days) | minimum inhibition concentration (MIC) ([2]; Time 4 days) | minimum inhibition concentration (MIC) ([2]; Time 5 days) | minimum inhibition concentration (MIC) ([2]; Time 6 days) | minimum inhibition concentration (MIC) ([2]; Time 7 days) | minimum inhibition concentration (MIC) (M. furfur (ATCC 12078); Time 0.5 days) | minimum inhibition concentration (MIC) (M. furfur (ATCC 12078); Time 1 days) | minimum inhibition concentration (MIC) ([3]; Time 0.5 days) | minimum inhibition concentration (MIC) ([3]; Time 1 days) | minimum inhibition concentration (MIC) ([3]; Time 2 days) | minimum inhibition concentration (MIC) ([3]; Time 3 days) | minimum inhibition concentration (MIC) ([3]; Time 4 days) | minimum inhibition concentration (MIC) ([3]; Time 5 days) | minimum inhibition concentration (MIC) ([3]; Time 6 days) | minimum inhibition concentration (MIC) ([3]; Time 7 days) | minimum inhibition concentration (MIC) (C. albicans (ATCC 90028); Time 0.5 days) | minimum inhibition concentration (MIC) (M. furfur (ATCC 44344); Time 0.5 days) | minimum inhibition concentration (MIC) (M. furfur (ATCC 44344); Time 1 days) | minimum inhibition concentration (MIC) ([4]; Time 0.5 days)
8 µg/mL: MIC (C. krusei (ATCC 6258) [1]; ATCC6258, 48 h, Time 2 days)
0.12-1: CLSI expected values (C. krusei (ATCC 6258) [6]; at 24 hours)
0.03 µg/mL: MIC (M. furfur (ATCC 14521); ATCC14521, 48 h, Time 2 days)
1 µg/mL: MIC ([4]; ATCC22019, 120 h, Time 5 days) | MIC ([4]; ATCC22019, 144 h, Time 6 days)
32 µg/mL: MIC (C. krusei (ATCC 6258) [1]; ATCC6258, 144 h, Time 6 days) | MIC (C. krusei (ATCC 6258) [1]; ATCC6258, 168 h, Time 7 days)
0.5 µg/mL: MIC ([4]; ATCC22019, 24 h, Time 1 days) | MIC ([4]; ATCC22019, 48 h, Time 2 days) | MIC ([4]; ATCC22019, 72 h, Time 3 days) | MIC ([4]; ATCC22019, 96 h, Time 4 days)
0.06-0.5: expected CLSI values ([5]; at 48 hours)
2 µg/mL: MIC ([4]; ATCC22019, 168 h, Time 7 days)
16 µg/mL: MIC (C. krusei (ATCC 6258) [1]; ATCC6258, 72 h, Time 3 days) | MIC (C. krusei (ATCC 6258) [1]; ATCC6258, 96 h, Time 4 days) | MIC (C. krusei (ATCC 6258) [1]; ATCC6258, 120 h, Time 5 days)
4 µg/mL: MIC (C. krusei (ATCC 6258) [1]; ATCC6258, 24 h, Time 1 days)
0.125 µg/mL: MIC (C. albicans (ATCC 90028); ATCC90028, 72 h, Time 3 days) | MIC (M. furfur (ATCC 44344); ATCC44344, 48 h, Time 2 days) | MIC (M. furfur (ATCC 44344); ATCC44344, 72 h, Time 3 days) | MIC (M. furfur (ATCC 44344); ATCC44344, 96 h, Time 4 days) | MIC (M. furfur (ATCC 44344); ATCC44344, 168 h, Time 7 days)
0.06 µg/mL: MIC (M. furfur (ATCC 14521); ATCC14521, 72 h, Time 3 days) | MIC (M. furfur (ATCC 14521); ATCC14521, 96 h, Time 4 days) | MIC (M. furfur (ATCC 14521); ATCC14521, 120 h, Time 5 days) | MIC (M. furfur (ATCC 14521); ATCC14521, 144 h, Time 6 days) | MIC (M. furfur (ATCC 12078); ATCC12078, 48 h, Time 2 days) | MIC (M. furfur (ATCC 12078); ATCC12078, 72 h, Time 3 days) | MIC (M. furfur (ATCC 12078); ATCC12078, 96 h, Time 4 days) | MIC (M. furfur (ATCC 12078); ATCC12078, 120 h, Time 5 days) | MIC (M. furfur (ATCC 12078); ATCC12078, 144 h, Time 6 days) | MIC (C. albicans (ATCC 90028); ATCC90028, 24 h, Time 1 days) | MIC (C. albicans (ATCC 90028); ATCC90028, 48 h, Time 2 days)
